Results on 24 compounds are retold here after patent US6583159B1, “Substitute 1-(piperidin-4-yl)-3-(aryl)-isothioureas, their preparation and therapeutic use” (Pierre Fabre Medicament, priority 1999, dated 2003).

Structures can show the parent of a compound that is named as a salt.

In one data set the test system is rat isolated left atrium. Briefly: Inhibition of the contraction with veratrine of the rat isolated left atrium. It counts as cell-based. The settings on record: 10^−7M, veratrine-induced contraction. Here is the method: The inhibition of the contraction with veratrine of the rat isolated left atrium was carried out according to the technique of Le Grand et al. (Naunyn-Schmiedebergs Arch. Pharmacol., (1993) 348, p. 184-190). The results are shown in Table I below, where the percentages of the inhibition are given at a concentration of 10^−7M.

Data set [1] deals with guinea pig perfused isolated heart. Briefly: Antiischemic activity, global ischemia in the guinea pig perfused isolated heart. The data set is classed as cell-based. Particulars: Cavia porcellus, 10^−6M, ischemic contraction vs vehicle group. Here is the method:
The antiischemic activity was measured with regard to the test of the guinea pig perfused isolated heart according to the technique of Le Grand B. et al. (Am. J. Physiol., 269, H533-H540, 1995). The guinea pig hearts are removed, perfused with a modified Krebs solution and the compound to be studied, in solution in water or in a 99/01 water/DMSO mixture (according to solubility), is added after 20 minutes. […], global ischemia is brought about by halting coronary perfusion for 50 min, followed by reperfusion for 1 h. The inhibition of ischemic contraction in the presence of the compound studied is measured with respect to that of the vehicle group. The results are shown in Table II as nonlimiting examples at a concentration of 10^−6M.

The next data set relates to anesthetized rabbit. In words: Ischemia-reperfusion in the anesthetized rabbit, oral. It counts as in vivo. The text has this: The compounds of the present invention are also active orally in the test of ischemia-reperfusion in the anesthetized rabbit according to the method of Verscheure et al., (J. Cardiovasc. Pharmacol., 1995, 25, 126-133).

Turning to `CS/C(=N\c1ccc(F)cc1)N(C)C1CCN(CCCCOc2ccc(F)c(F)c2)CC1.O=C(O)/C=C/C(=O)O` [Example 13, 1,2-Dimethyl-1-[1-[4-(3,4-difluorophenoxy)butyl]piperidin-4-yl]-3-(4-fluorophenyl)isothiourea hydrogen fumarate], the melting point turned out to be 125 °C. The compound also yielded an inhibition at 0.1 µM with rat isolated left atrium of 34%.
Turning to `CS/C(=N\c1ccccc1F)N(C)C1CCN(CCCCOc2ccc(F)c(F)c2)CC1.O=C(O)/C=C/C(=O)O`, the melting point came out at 148 °C.
`COc1cc(Cl)ccc1OCCCCN1CCC(N(C)/C(=N/c2ccccc2)SC)CC1.O=C(O)/C=C/C(=O)O` registered a melting point of 106 to 107 °C.
Same read-out and setting: as for `CS/C(=N\c1ccccc1)N(C)C1CCN(CCCCOc2ccc(C)c(C)c2)CC1.O=C(O)/C=C/C(=O)O`, the figure is 138 to 139 °C; as for `CS/C(=N\c1cccc(F)c1)N(C)C1CCN(CCCCOc2ccc(F)c(F)c2)CC1.O=C(O)/C=C/C(=O)O`, 133 °C.
As to `CS/C(=N\c1c(C)cccc1C)N(C)C1CCN(CCCCOc2ccc(F)c(F)c2)CC1.O=C(O)/C=C/C(=O)O`, the melting point was 129 °C.
For the compound `CS/C(=N\c1c(C(C)C)cccc1C(C)C)N(C)C1CCN(CCCCOc2ccc(F)c(F)c2)CC1.O=C(O)/C=C/C(=O)O`, the melting point stood at 194 °C.
The same measure, in the same setting: as for `CS/C(=N\c1ccccc1)N(C)C1CCN(CCCCCOc2ccc(F)c(F)c2)CC1.O=C(O)/C=C/C(=O)O`, the figure is 129 to 130 °C.
`COc1ccc(/N=C(\SC)N(C)C2CCN(CCCCOc3ccc(F)c(F)c3)CC2)cc1.O=C(O)/C=C/C(=O)O` came in with a melting point of 130 °C.
Still for that read-out and setting: the figure for `CS/C(=N\c1ccccc1)N(C)C1CCN(CCCCOc2ccc(F)cc2)CC1.O=C(O)/C=C/C(=O)O` is 133 to 134 °C.
`CCN(/C(=N/c1ccccc1)SC)C1CCN(CCCCOc2ccc(F)c(F)c2)CC1.O=C(O)/C=C/C(=O)O` [Example 3, 1-Ethyl-1-[1-[4-(3,4-difluorophenoxy)butyl]piperidin-4-yl]-2-methyl-3-phenylisothiourea hydrogen fumarate] had a melting point of 120 to 121 °C. Further, in the data set with rat isolated left atrium, 0.1 µM produced 32% inhibition.
`CS/C(=N\c1ccccc1)N(CC(C)C)C1CCN(CCCCOc2ccc(F)c(F)c2)CC1.O=C(O)/C=C/C(=O)O` yielded a melting point of 131 to 132 °C.
The compound `CS/C(=N\c1ccccc1)N(C)C1CCN(CCCCOc2ccc(F)c(F)c2)CC1.O=C(O)/C=C/C(=O)O` [Example 1, 1,2-Dimethyl-3-phenyl-1-[1-[4-(3,4-difluorophenoxy)butyl]piperidin-4-yl]isothiourea hydrogen fumarate] returned a melting point of 151 to 152 °C. In data set [1], this compound displayed an inhibition at 1 µM of 69%. In the data set on anesthetized rabbit (0.63 mg/kg p.o.), the “% arterial pressure variation” value is recorded as −3%, the “% heart rate variation” value is recorded as 5%, the “% inhibition with regard to ST-segment elevation” value (“% inhibition with regard” below) is reported as 58% and the “Number of animals exhibiting reperfusion arrhythmias” value (“Number” below) is listed as 1/5. This compound came in with an inhibition at 0.1 µM in the data set on rat isolated left atrium of 28%.
For `CS/C(=N\c1ccc(Cl)cc1)N(C)C1CCN(CCCCOc2ccc(F)c(F)c2)CC1.O=C(O)/C=C/C(=O)O`, the melting point stood at 130 °C.
In the case of `CN(c1nc2ccccc2s1)C1CCN(CCCCOc2ccc(F)cc2)CC1` [R 56865, N-(1-(4-(4-Fluorophenoxy)butyl)piperidin-4-yl)-N-methyl-2-benzothiazolamine], in the data set on anesthetized rabbit (2.5 mg/kg p.o.), the “% arterial pressure variation” value is 27%, the “% heart rate variation” value was found to be 0%, the “% inhibition with regard” value was 0% and the “Number” value is listed as 2/5. In the data set with rat isolated left atrium, this compound gave an inhibition at 0.1 µM of 33%.
With `CS/C(=N\c1c(F)cccc1F)N(C)C1CCN(CCCCOc2ccc(F)c(F)c2)CC1` [Example 21, 1,2-Dimethyl-1-[1-[4-(3,4-difluorophenoxy)butyl]piperidin-4-yl]-3-(2,6-difluorophenyl)isothiourea hydrogen fumarate], in data set [1], the inhibition at 1 µM was found to be 53%. In the data set with rat isolated left atrium, testing at 0.1 µM gave an inhibition of 31%.
Compound `CS/C(=N\c1ccc([N+](=O)[O-])cc1)N(C)C1CCN(CCCCOc2ccc(F)c(F)c2)CC1.O=C(O)/C=C/C(=O)O` gave a melting point of 132 °C.
For `CS/C(=N\c1ccccc1)N(C)C1CCN(CCCOCCc2ccc(F)cc2)CC1.O=C(O)/C=C/C(=O)O`, the melting point lay within 110 to 111 °C.
Compound `COc1ccc(OCCCCN2CCC(N(C)/C(=N/c3ccccc3)SC)CC2)cc1.O=C(O)/C=C/C(=O)O` came in with a melting point of 120 °C.
For the compound `CS/C(=N\c1ccc(C)cc1)N(C)C1CCN(CCCCOc2ccc(F)c(F)c2)CC1.O=C(O)/C=C/C(=O)O`, the melting point was determined as 141 °C.
On to `CN(C1=Nc2ccccc2CS1)C1CCN(CCCCOc2ccc(F)c(F)c2)CC1` [PF Control, N-[1-[4-(3,4-Difluorophenoxy)butyl]piperidin-4-yl]-N-methyl-4H-3,1-benzothiazin-2-amine], for which the inhibition at 1 µM in data set [1] was found to be 48%. Further, in the data set with anesthetized rabbit (0.63 mg/kg p.o.), the “% arterial pressure variation” value was 9%, the “% heart rate variation” value was 9%, the “% inhibition with regard” value is given as 33% and the “Number” value is 1/5. Besides, in the data set on rat isolated left atrium, the inhibition at 0.1 µM is 25%.
For the compound `CCS/C(=N\c1ccccc1)N(C)C1CCN(CCCCOc2ccc(F)c(F)c2)CC1.O=C(O)/C=C/C(=O)O`, the melting point lay in the range of 151 to 152 °C.
`CS/C(=N\c1ccccc1)N(C)C1CCN(CCOc2ccc(F)cc2)CC1.O=C(O)/C=C/C(=O)O` showed a melting point of 120 °C.
Compound `CS/C(=N\c1ccccc1)N(C)C1CCN(CCCOc2ccc(F)c(F)c2)CC1.O=C(O)/C=C/C(=O)O` showed a melting point of 106 to 107 °C.
